Square brackets hold non-standard residues; d marks the D form. Peptide text beside a SMILES is read from it. * marks the point of attachment. ξ: configuration not given here. Cbz = O=C(OCc1ccccc1)*; Boc = CC(C)(C)OC(=O)*; ξV = CC(C)C(N)C(=O)O; CF3 = FC(F)(F)*; Sar = CNCC(=O)O
Key:
Neutrophil elastase = target: T1, Neutrophil elastase (Homo sapiens, UniProt P08246); test: In vitro inhibitory activity against human leukocyte elastase
T1 sequence (P08246 whole entry): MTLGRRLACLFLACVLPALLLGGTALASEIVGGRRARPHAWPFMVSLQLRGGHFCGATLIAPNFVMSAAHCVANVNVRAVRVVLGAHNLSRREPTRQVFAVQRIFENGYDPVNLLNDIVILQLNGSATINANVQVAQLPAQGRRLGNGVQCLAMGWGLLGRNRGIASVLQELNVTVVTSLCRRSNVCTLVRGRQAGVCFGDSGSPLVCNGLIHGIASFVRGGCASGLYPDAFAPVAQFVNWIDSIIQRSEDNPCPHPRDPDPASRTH

Cricetinae gen. sp. [1] = test: Compound was evaluated for inhibition of Elastase-induced Pulmonary hemorrhage (EPH) in hamsters at the dose of 20 micro/mL); type: functional; set-up: unit not given here
Cricetinae gen. sp. [2] = test: Compound was evaluated for inhibition of Elastase-induced Pulmonary hemorrhage (EPH) in hamsters at the dose of 10 micro/mL); type: functional
Cricetinae gen. sp. [3] = test: Compound was evaluated for inhibition of Elastase-induced Pulmonary hemorrhage (EPH) in hamsters at the dose of 3 micro/mL); type: functional
Cricetinae gen. sp. [4] = test: Compound was evaluated for inhibition of Elastase-induced Pulmonary hemorrhage (EPH) in hamsters at the dose of 30 micro/mL); type: functional
Cricetinae gen. sp. [5] = test: Compound was evaluated for inhibition of Elastase-induced Pulmonary hemorrhage (EPH) in hamsters at the dose of 1 micro/mL); type: functional
Cricetinae gen. sp. [6] = test: Compound was evaluated for inhibition of Elastase-induced Pulmonary hemorrhage (EPH) in hamsters at the dose of 100 micro/mL); type: functional

| SMILES | IC50 (Neutrophil elastase) [nM] | further results |
| --- | --- | --- |
| CC(C)C(NC(=O)C1Cc2ccccc2CN1C(=O)[C@@H](NC(=O)OCc1ccccc1)C(C)C)C(=O)C(F)(F)F (stereo in doubt; 20z) | 73 | – |
| CC(C)C(NC(=O)CN(C(=O)[C@@H](NC(=O)c1ccc(C(=O)NS(=O)(=O)c2ccc(Cl)cc2)cc1)C(C)C)C1CC2CCC1C2)C(=O)C(F)(F)F (stereo partly drawn) | – | Max hemorrhage (Cricetinae gen. sp. [1]): 93.8 |
| CC(C)C(NC(=O)C1Cc2ccccc2CN1C(=O)[C@@H](NC(=O)OCc1ccccc1)C(C)C)C(=O)C(F)(F)F (stereo in doubt; 20y) | 233 | – |
| CC(C)C(NC(=O)C1Cc2ccccc2CN1C(=O)[C@@H](NC(=O)c1ccc(C(=O)NS(=O)(=O)c2ccc(Cl)cc2)cc1)C(C)C)C(=O)C(F)(F)F (stereo partly drawn) | – | Max hemorrhage (Cricetinae gen. sp. [1]): 88.4 |
| CC(C)C(NC(=O)[C@H]1CCCN1C(=O)[C@@H](NC(=O)OC(C)(C)C)C(C)C)C(=O)C(F)(F)F (stereo partly drawn) | 172 | – |
| CC(C)C(NC(=O)CN(C(=O)[C@@H](NC(=O)OCc1ccccc1)C(C)C)C1Cc2ccccc2C1)C(=O)C(F)(F)F (stereo partly drawn) | – | Max hemorrhage (Cricetinae gen. sp. [1]): 24.2 |
| CC(C)C(NC(=O)C1CCCN1C(=O)[C@@H](NC(=O)OC(C)(C)C)C(C)C)C(=O)C(F)(F)F (stereo partly drawn) | 65 | – |
| CC(C)[C@H](NC(=O)OCc1ccccc1)C(=O)N(CC(=O)NCC(=O)C(F)(F)F)C1Cc2ccccc2C1 | > 5000 | – |
| CC(C)C(NC(=O)CN(C(=O)OCc1ccccc1)C1Cc2ccccc2C1)C(=O)C(F)(F)F (stereo not drawn) | > 5000 | – |
| CC(C)C(NCCN(C(=O)[C@@H](NC(=O)OC(C)(C)C)C(C)C)C1Cc2ccccc2C1)C(=O)C(F)(F)F (stereo partly drawn) | > 5000 | – |
| CCOC(=O)CCC(=O)Nc1nc(/C(=N\OC)C(=O)N[C@H](C(=O)N(CC(=O)NC(C(=O)C(F)(F)F)C(C)C)C2Cc3ccccc3C2)C(C)C)cs1 (stereo partly drawn) | 452 | – |
| COc1ccc(CCN(CC(=O)NC(C(=O)C(F)(F)F)C(C)C)C(=O)[C@@H](NC(=O)c2ccc(C(=O)NS(=O)(=O)c3ccc(Cl)cc3)cc2)C(C)C)cc1OC (stereo partly drawn) | 84 | – |
| CC(C)C(NC(=O)CN(C(=O)[C@@H](NC(=O)c1ccc(C(=O)NS(=O)(=O)c2ccc(Cl)cc2)cc1)C(C)C)C1CCCC1)C(=O)C(F)(F)F (stereo partly drawn) | 92 | Max hemorrhage (Cricetinae gen. sp. [1]): 99.2 |
| CC(C)C(NC(=O)CN(CC1CCCO1)C(=O)[C@@H](NC(=O)c1ccc(C(=O)NS(=O)(=O)c2ccc(Cl)cc2)cc1)C(C)C)C(=O)C(F)(F)F (stereo partly drawn) | 30 | – |
| CC(C)C(NC(=O)CN(C)C(=O)[C@@H](NC(=O)OCc1ccccc1)C(C)C)C(=O)C(F)(F)F (stereo partly drawn) (Cbz-Val-[Sar]-[ξV]-CF3) | 153 | – |
| CC(C)C(NC(=O)CN(C(=O)[C@@H](NC(=O)c1ccc(C(=O)NS(=O)(=O)c2ccc(Cl)cc2)cc1)C(C)C)C1Cc2ccccc2C1)C(=O)C(F)(F)F (stereo partly drawn) | – | Max hemorrhage (Cricetinae gen. sp. [3]): 58.1; Max hemorrhage (Cricetinae gen. sp. [4]): 99.3; Inhibition of elastase-induced pulmonary hemorrhage (Cricetinae gen. sp. [2]): 90.5 |
| CC(C)C(NC(=O)OCc1ccccc1)C(=O)C(F)(F)F (stereo not drawn) | > 5000 | – |
| CC(C)C(NC(=O)c1ccc(C(=O)NS(=O)(=O)c2ccc(Br)cc2)cc1)C(=O)N1CCC[C@H]1C(=O)N[C@H](C(=O)C(F)(F)F)C(C)C (stereo partly drawn) | – | Max hemorrhage (Cricetinae gen. sp. [5]): 33.3; Max hemorrhage (Cricetinae gen. sp. [3]): 79.4; Inhibition of elastase-induced pulmonary hemorrhage (Cricetinae gen. sp. [2]): 98.5 |
| CCOC(=O)N1CCC(N(CC(=O)NC(C(=O)C(F)(F)F)C(C)C)C(=O)[C@@H](NC(=O)OCc2ccccc2)C(C)C)CC1 (stereo partly drawn) | 507 | – |
| CC(C)C(NC(=O)CNC(=O)[C@@H](NC(=O)OC(C)(C)C)C(C)C)C(=O)C(F)(F)F (stereo partly drawn) (Boc-Val-Gly-[ξV]-CF3) | 153 | – |
| CC(C)[C@H](NC(=O)CN(C(=O)[C@@H](NC(=O)OCc1ccccc1)C(C)C)C1Cc2ccccc2C1)C(=O)c1ccc(C(F)(F)F)cc1 | > 5000 | – |
| CC(=O)OCC1=C(C(=O)OC(C)(C)C)N2C(=O)[C@@H](C(C)=O)C2S(=O)(=O)C1 (stereo partly drawn) | – | Max hemorrhage (Cricetinae gen. sp. [6]): 0 |

Now from value to compound, other results behind:

| IC50 (Neutrophil elastase) [nM] | SMILES | further results |
| --- | --- | --- |
| 217 | CC(C)C(NC(=O)CN(Cc1ccccc1)C(=O)[C@@H](NC(=O)c1ccc(C(=O)NS(=O)(=O)c2ccc(Cl)cc2)cc1)C(C)C)C(=O)C(F)(F)F (stereo partly drawn) | – |
| 817 | CC(NC(=O)CN(C(=O)[C@@H](NC(=O)c1ccc(C(=O)NS(=O)(=O)c2ccc(Cl)cc2)cc1)C(C)C)C1Cc2ccccc2C1)C(=O)C(F)(F)F (stereo partly drawn) | – |
| > 5000 | CC(C)[C@H](NC(=O)c1ccc(C(=O)NS(=O)(=O)c2ccc(Cl)cc2)cc1)C(=O)N(CC(=O)NC(Cc1ccccc1)C(=O)C(F)(F)F)C1Cc2ccccc2C1 (stereo partly drawn) | Max hemorrhage (Cricetinae gen. sp. [1]): 43.8 |
| 5000 | CC(C)C(NCCN(C(=O)[C@@H](NC(=O)c1ccc(C(=O)NS(=O)(=O)c2ccc(Cl)cc2)cc1)C(C)C)C1Cc2ccccc2C1)C(=O)C(F)(F)F (stereo partly drawn) | Inhibition of elastase-induced pulmonary hemorrhage (Cricetinae gen. sp. [2]): 2.7 |
| 73 | CC(C)C(NC(=O)CNC(=O)[C@@H](NC(=O)c1ccc(C(=O)NS(=O)(=O)c2ccc(Cl)cc2)cc1)C(C)C)C(=O)C(F)(F)F (stereo partly drawn) | Max hemorrhage (Cricetinae gen. sp. [1]): 85.1 |
| 175 | CC(C)C(NC(=O)CN(C(=O)[C@@H](NC(=O)c1ccc(C(=O)NS(=O)(=O)c2ccc(Cl)cc2)cc1)C(C)C)C1CCCCCC1)C(=O)C(F)(F)F (stereo partly drawn) | Max hemorrhage (Cricetinae gen. sp. [1]): 84.3 |
| 52 | CC(C)C(NC(=O)CN(C)C(=O)[C@@H](NC(=O)c1ccc(C(=O)NS(=O)(=O)c2ccc(Cl)cc2)cc1)C(C)C)C(=O)C(F)(F)F (stereo partly drawn) | – |
| 57 | CCOC(=O)N1CCC(N(CC(=O)NC(C(=O)C(F)(F)F)C(C)C)C(=O)[C@@H](NC(=O)c2ccc(C(=O)NS(=O)(=O)c3ccc(Cl)cc3)cc2)C(C)C)CC1 (stereo partly drawn) | Max hemorrhage (Cricetinae gen. sp. [1]): 98.4 |
| 5100 | CC(C)[C@H](NC(=O)CN(C(=O)[C@@H](NC(=O)c1ccc(C(=O)NS(=O)(=O)c2ccc(Cl)cc2)cc1)C(C)C)C1Cc2ccccc2C1)C(=O)c1ccc(C(F)(F)F)cc1 | Inhibition of elastase-induced pulmonary hemorrhage (Cricetinae gen. sp. [2]): 7.7 |
| 138 | CC(C)C(NC(=O)CN(Cc1ccco1)C(=O)[C@@H](NC(=O)c1ccc(C(=O)NS(=O)(=O)c2ccc(Cl)cc2)cc1)C(C)C)C(=O)C(F)(F)F (stereo partly drawn) | Inhibition of elastase-induced pulmonary hemorrhage (Cricetinae gen. sp. [2]): 96.2 |
| 67 | CC(C)C(NC(=O)CN(C(=O)[C@@H](NC(=O)c1ccc(C(=O)NS(=O)(=O)c2ccc(Cl)cc2)cc1)C(C)C)C1CCCCCCC1)C(=O)C(F)(F)F (stereo partly drawn) | Inhibition of elastase-induced pulmonary hemorrhage (Cricetinae gen. sp. [2]): 96.7 |
| > 5000 | CC(C)[C@H](NC(=O)c1ccc(C(=O)NS(=O)(=O)c2ccc(Cl)cc2)cc1)C(=O)N(CC(=O)NC(C)(C)C(=O)C(F)(F)F)C1Cc2ccccc2C1 | – |
| 149 | CC(C)C(NC(=O)CN(C(=O)[C@@H](NC(=O)c1ccc(C(=O)NS(=O)(=O)c2ccc(Br)cc2)cc1)C(C)C)C1Cc2ccccc2C1)C(=O)C(F)(F)F (stereo partly drawn) | – |

Source: ChEMBL document CHEMBL1125371, “Inhibition of human leukocyte elastase (HLE) by N-substituted peptidyl trifluoromethyl ketones” (J Med Chem, 1992)
